{"source": "patent US11717480B2", "about": "“Extracellular vesicles and methods and uses thereof” (The Regents of the University of California, priority 2016, dated 2023)", "key": {"EL4 cells": {"system": "EL4 cells", "experiment": "In vitro MTT viability assay of EL4 cells", "assay_type": "cell-based, mouse", "settings": "highest concentrations tested, n=3, one-way ANOVA and Tukey HSD", "method": "Turning now to FIG. 20. FIG. 20 describes the effect of therapeutic agents delivered by EVs of various embodiments as compared to other forms of drug delivery. […] (See, Immordino, et al., Int. J. Nanomedicine 1, 297-315 (2016), the disclosures being incorporated herein by reference.)\nEL4 cells were treated over 24 or 48 hours with DOX, DOXIL, DOX-EVs, or unloaded EVs. […] It is important to note that DOX-loaded EVs would not be expected to outperform free DOX in vitro study since their primary benefits (improved biocompatibility and extended release) are critical factors in an in vivo delivery setting.\nIn vitro viability studies. EL4 cells were plated at 20,000 cells/well in 100 μL of DMEM with 10% FBS. Cells were incubated for 24 hours or 48 hours with the concentrations of DOX, DOXIL or DOX-EVs described in FIG. 20. An MTT assay was performed and cells were incubated with 1 mg/mL of MTT for 1 hour. The crystals were dissolved in 100 μL of DMSO and the absorbance of each well was characterized at 560 nm.\nTurning now to FIG. 20. FIG. 20 describes the effect of therapeutic agents delivered by EVs of as compared to other forms of drug delivery. […] (See, Immordino, et al., Int. J. Nanomedicine 1, 297-315 (2016), the disclosures being incorporated herein by reference.)\nEL4 cells were treated over 24 or 48 hours with DOX, DOXIL, DOX-EVs, or unloaded EVs. […]"}, "[1]": {"experiment": "Biodistribution: drug content of organs 24 hours after treatment", "assay_type": "in vivo, C57BL/6 mice", "settings": "lung, liver, heart, spleen, tumor", "method": "Turning to FIG. 21C, serum was collected from C57BL/6 mice treated with DOX, DOXIL or DOX-EVs and analyzed for drug content. Concentration of DOX in the serum (n=3) was measured over 12 hours by a series of blood collections and fluorescence quantifications. […] Twenty-four hours after treatment, the mice were sacrificed and their organs were assessed for drug content.\nFor pharmacokinetics and biodistribution experiments, tumors were established and mice were treated as described above. Tail vein blood collection was completed at the time points indicated and suspended in acidified alcohol. The blood was analyzed for DOX concentration by fluorescence spectroscopy (ex. 485 nm, em. 595 nm). 24 hours post treatment, the mice were sacrificed and the organs were extracted. The organs were cryopulverized and resuspended in acidified alcohol for fluorescence spectroscopy (ex. 485 nm, em. 595 nm) analysis."}}, "data": [{"compound": "COc1cccc2c1C(=O)c1c(O)c3c(c(O)c1C2=O)C[C@@](O)(C(=O)CO)C[C@@H]3O[C@H]1C[C@H](N)[C@H](O)[C@H](C)O1", "note": "[DOX, doxorubicin]", "values": [{"measurement": "Viability of EL4 cells versus controls", "setting": "EL4 cells", "value": "statistically significant (p<0.01) from the controls"}, {"measurement": "Accumulation of drug in organs", "setting": "[1]", "value": "tends to accumulate in the lung"}]}]}
